Assay results from patent US7728043B2, “Methods for treatment of beta-amyloid protein-induced ocular disease” (priority 1999, dated 2010).

Key:
PC12 cells = assay: MTT reduction assay, βA peptide-induced toxicity, PC12 cells; format: cell-based, rat
Description: (§1) The degree of βA insult was measured by 3-[4,5-dimethylthiazol-2-yl]-2,5-diphenyltetrazolium bromide (MTT) reduction assay. […] The detection of cell growth or cell death can be determined by observing the conversion of MTT to the colored product, MTT formazan, the concentration of which can be measured […] at 550 nm.
(§2) Cells were incubated in MTT solution (5 mg/ml) at 37° C. for 2 hours. During this time, cells were observed under a microscope every 15 min. Cells were incubated in Lysing buffer (100 μl) overnight at 37° C. Colorimetric determination of MTT reduction was made at 550 nm.
(§3) PC12 rat pheochromocytoma and IMR32 human neuroblastoma cells were obtained from the American Type Culture Collection (ATCC). HUVEC normal umbilical human vein endothelial cells were obtained from Clonetics (San Diego, Calif.). Cells were routinely cultured on a tissue culture plate (Corning, N.Y., N.Y.). PC12 cells were grown in high glucose Dulbecco's Modified Eagle Medium (DMEM), 10% horse serum, 5% fetal calf serum, and 1% penicillin/streptomycin. IMR32 cells were grown in 90% DMEM and 10% fetal calf serum with 1% penicillin/streptomycin. HUVEC cells were grown in EGM-2 Bullet Kit (Clonetics, San Diego, Calif.).
PC12 cells were cultured routinely on polystyrene-coated Corning tissue culture plates. […] The 96-well plates were coated with rat tail collagen (Boehringer Mannheim) in order to promote uniform PC12 cell attachment and growth.

IMR32 cells = assay: MTT reduction assay, βA peptide-induced toxicity, IMR32 cells; format: cell-based, human
Description: as §1, §2, §3

HUVEC cells = assay: MTT reduction assay, βA peptide-induced toxicity, HUVEC cells; format: cell-based, human
Description: as §1, §2, §3

[1] = system: cells treated with βA peptide; assay: Protection of cells from βA peptide insult, statements in words (MTT assay, cells not singled out); format: cell-based; conditions: MTT reduction assay; PC12, IMR32, HUVEC cells where named in the sentence
Description: as §1, §2

[2] = Antioxidant assay, scavenging of DPPH free radicals; conditions: for Antioxidant IC50: Table 2, synthesized curcuminoids, DPPH; for Antioxidant activity (DPPH free radical scavenging), in words: optical density change of DPPH radicals at 515 nm
Description: Kim et al., Neurosci Lett 303, 57 (2001) and Barik et al., Free Radic Biol Med 39, 811 (2005).
Using an antioxidant assay, the antioxidant potency of the compounds of the invention was evaluated. 1,1-Diphenyl-2-picrylhydrazyl (DPPH) is known to generate stable free radicals in aqueous and ethanolic solutions. The ability of the compounds of the invention to scavenge these free radicals was measured by observing the optical density change of DPPH radicals at 515 nm. Kim et al., Neurosci Lett 303, 57 (2001) and Barik et al., Free Radic Biol Med 39, 811 (2005).
The samples were prepared in various concentrations (200, 20, 2.0, and 0.2 μg/ml) by serial dilution of a stock solution (5 mg/ml) and were tested by the following procedure. Reaction mixtures containing test compounds (dissolved in DMSO) and 300 μM DPPH ethanolic solution in 96-well microtiter plates were incubated at 37° C. for 30 min. and absorbance was measured at 515 nm. Percent inhibition by sample treatment was determined by comparison with a DMSO-treated […] control group. IC50 values were determined from percent inhibition by sample. IC50 values denote the concentration of the tested compound that was required to scavenge 50% of the DPPH free radicals.

[3] = Table 2, synthesized curcuminoids
[4] = Table 3, ginger-derived natural product compounds

Q: Which “Anti-βA peptide(1-42) ED50 PC12” value (PC12 cells; Table 4, ginkgo compounds) does the source give for `CC(C)(C)[C@]1(O)CC2OC(=O)CC23C(=O)OC2OC(=O)[C@H](O)C231` (single isomer, unassigned; (-)) [(−)-Bilobalide, reference compound] here?
A: toxic

Q: And the “Anti-βA peptide(25-35) ED50 PC12” value (PC12 cells; Table 4, ginkgo compounds)?
A: toxic

Q: What about the “Anti-βA peptide(1-42) ED50 IMR32” value (IMR32 cells; Table 4, ginkgo compounds) of the same compound?
A: toxic

Q: What about the “Anti-βA peptide(25-35) ED50 IMR32” value (IMR32 cells; Table 4, ginkgo compounds) of the same compound?
A: toxic

Q: And the “Anti-βA peptide(1-42) ED50 HUVEC” value (HUVEC cells; Table 4, ginkgo compounds)?
A: toxic

Q: And the “Anti-βA peptide(25-35) ED50 HUVEC” value (HUVEC cells; Table 4, ginkgo compounds)?
A: toxic

Q: What about the “Protection of cells from βA peptide-induced toxicity, in words” value (“Protection of cells” below) [1] of the same compound?
A: do not possess biological activity

Q: What does the source list for `O=C(CCc1ccccc1)CC(=O)CCc1ccc(O)cc1` [Compound 7]?
A: Anti-βA peptide(1-42) ED50 PC12 (PC12 cells; [3]): toxic; Anti-βA peptide(25-35) ED50 PC12 (PC12 cells; [3]): toxic; Anti-βA peptide(1-42) ED50 IMR32 (IMR32 cells; [3]): toxic; Anti-βA peptide(25-35) ED50 IMR32 (IMR32 cells; [3]): toxic; Antioxidant IC50 [2]: >200 µg/mL; Protection of cells from βA peptide-induced toxicity, in words [1]: cytotoxic

Q: Which “Anti-βA peptide(1-42) ED50 PC12” value (PC12 cells; [3]) does the source give for `O=C(C=C(O)C=Cc1ccccc1)CCc1ccc(O)cc1` [Compound 8] here?
A: toxic

Q: What about the “Anti-βA peptide(25-35) ED50 PC12” value (PC12 cells; [3]) of the same compound?
A: toxic

Q: And the “Anti-βA peptide(1-42) ED50 IMR32” value (IMR32 cells; [3])?
A: toxic

Q: And the “Anti-βA peptide(25-35) ED50 IMR32” value (IMR32 cells; [3])?
A: toxic

Q: What about the “Antioxidant IC50” value [2] of the same compound?
A: >200 µg/mL

Q: And the “Protection of cells” value [1]?
A: cytotoxic

Q: Which results are given for `O=C(CCc1ccc(O)cc1)CC(=O)CCc1ccc(O)cc1` [Compound 9]?
A: Anti-βA peptide(1-42) ED50 PC12 (PC12 cells; [3]): 9.0 µg/mL; Anti-βA peptide(25-35) ED50 PC12 (PC12 cells; [3]): 10.0 µg/mL; Anti-βA peptide(1-42) ED50 IMR32 (IMR32 cells; [3]): 11.0 µg/mL; Anti-βA peptide(25-35) ED50 IMR32 (IMR32 cells; [3]): 12.0 µg/mL; Antioxidant IC50 [2]: >200 µg/mL; Protection of cells from βA peptide-induced toxicity, in words [1]: protected

Q: What does the source list for `COc1ccc(/C=C/C(=O)CC(=O)CCc2ccc(O)cc2)cc1` [Compound 10]?
A: Anti-βA peptide(1-42) ED50 PC12 (PC12 cells; [3]): toxic; Anti-βA peptide(25-35) ED50 PC12 (PC12 cells; [3]): toxic; Anti-βA peptide(1-42) ED50 IMR32 (IMR32 cells; [3]): toxic; Anti-βA peptide(25-35) ED50 IMR32 (IMR32 cells; [3]): toxic; Antioxidant IC50 [2]: >200 µg/mL; Protection of cells from βA peptide-induced toxicity, in words [1]: cytotoxic

Q: For `CCC/C=C/C(=O)CCc1ccc(O)c(OC)c1` [Compound 11], which “Anti-βA peptide(1-42) ED50 PC12” value (PC12 cells; [4]) is on record?
A: 12 µg/mL

Q: And the “Anti-βA peptide(25-35) ED50 PC12” value (PC12 cells; [4])?
A: 15 µg/mL

Q: And the “Anti-βA peptide(25-35) ED50 IMR32” value (IMR32 cells; [4])?
A: 15 µg/mL

Q: And the “Anti-βA peptide(1-42) ED50 HUVEC” value (HUVEC cells; [4])?
A: 20 µg/mL

Q: And the “Anti-βA peptide(25-35) ED50 HUVEC” value (HUVEC cells; [4])?
A: 20 µg/mL

Q: What about the “Antioxidant activity (DPPH free radical scavenging), in words” value [2] of the same compound?
A: None of these compounds exhibited significant antioxidant activity

Q: And the “Protection of cells” value [1]?
A: effectively protected

Q: Which results are given for `CCCCC/C=C/C(=O)CCc1ccc(O)c(OC)c1` [Compound 12]?
A: Anti-βA peptide(1-42) ED50 PC12 (PC12 cells; [4]): 10 µg/mL; Anti-βA peptide(25-35) ED50 PC12 (PC12 cells; [4]): 9.0 µg/mL; Anti-βA peptide(25-35) ED50 IMR32 (IMR32 cells; [4]): 8.0 µg/mL; Anti-βA peptide(1-42) ED50 HUVEC (HUVEC cells; [4]): 18 µg/mL; Anti-βA peptide(25-35) ED50 HUVEC (HUVEC cells; [4]): 20 µg/mL; Antioxidant activity (DPPH free radical scavenging), in words [2]: None of these compounds exhibited significant antioxidant activity; Protection of cells from βA peptide-induced toxicity, in words [1]: effectively protected

Q: With `CCCCCCCC/C=C/C(=O)CCc1ccc(O)c(OC)c1` [Compound 13, [9]-shogaol] as the compound, how does the “Anti-βA peptide(1-42) ED50 PC12” value (PC12 cells; [4]) read?
A: 4.0 µg/mL

Q: And the “Anti-βA peptide(25-35) ED50 PC12” value (PC12 cells; [4])?
A: 3.0 µg/mL

Q: And the “Anti-βA peptide(25-35) ED50 IMR32” value (IMR32 cells; [4])?
A: 2.0 µg/mL

Q: What about the “Anti-βA peptide(1-42) ED50 HUVEC” value (HUVEC cells; [4]) of the same compound?
A: 8.0 µg/mL

Q: What about the “Anti-βA peptide(25-35) ED50 HUVEC” value (HUVEC cells; [4]) of the same compound?
A: 8.0 µg/mL

Q: And the “Antioxidant activity (DPPH free radical scavenging), in words” value [2]?
A: None of these compounds exhibited significant antioxidant activity

Q: And the “Protection of cells” value [1]?
A: effectively protected

Q: For `CCCCCC/C=C\CCCCCCCc1cccc(O)c1C(=O)O` [Compound 15], which “Anti-βA peptide(1-42) ED50 PC12” value (PC12 cells; Table 4, ginkgo compounds) is on record?
A: 2.0 µg/mL

Q: And the “Anti-βA peptide(25-35) ED50 PC12” value (PC12 cells; Table 4, ginkgo compounds)?
A: 3.0 µg/mL

Q: And the “Anti-βA peptide(1-42) ED50 IMR32” value (IMR32 cells; Table 4, ginkgo compounds)?
A: 2.5 µg/mL

Q: What about the “Anti-βA peptide(25-35) ED50 IMR32” value (IMR32 cells; Table 4, ginkgo compounds) of the same compound?
A: 3.5 µg/mL

Q: What about the “Anti-βA peptide(1-42) ED50 HUVEC” value (HUVEC cells; Table 4, ginkgo compounds) of the same compound?
A: 1.5 µg/mL

Q: And the “Anti-βA peptide(25-35) ED50 HUVEC” value (HUVEC cells; Table 4, ginkgo compounds)?
A: 5.0 µg/mL

Q: What about the “Antioxidant activity (DPPH free radical scavenging), in words” value [2] of the same compound?
A: do not possess antioxidant properties

Q: What about the “Protection of cells” value [1] of the same compound?
A: protect

Q: With `CCCCCCCCCCC(=O)CCc1ccc(O)c(OC)c1` [Compound 45, [9]-dihydroshogaol] as the compound, how does the “Protection of cells” value [1] read?
A: effectively protected
